Results taken from US20160129011A1, “BICYCLO 2,3-BENZODIAZEPINES AND SPIROCYCLICALLY SUBSTITUTED 2,3-BENZODIAZEPINES” (BAYER PHARMA AKTIENGESELLSCHAFT, priority 2013, published 2016).

Experiments:
B16F10 cells = assay: Cell proliferation assay (alamarBlue), B16F10; format: cell-based; conditions: melanoma (BRAF wild-type) cell line, 96 h incubation
Method: (§1) In accordance with the invention, the ability of the substances to inhibit cell proliferation was determined. Cell viability was determined by means of the alamarBlue® reagent (Invitrogen) in a Victor X3 Multilabel Reader (Perkin Elmer). The excitation wavelength was 530 nm and the emission wavelength […].
The B16F10 cells (ATCC, CRL-6475) were sown at a concentration of 300-500 cells/well in 100 μl of growth medium (DMEM with phenol red, 10% FCS) on 96-well microtitre plates.
(§2) The MDA-MB-231 cells (DSMZ, ACC 732) were sown at a concentration of 4000 cells/well in 100 μl of growth medium (DMEM/Ham's F12 medium, 10% FCS) on 96-well microtitre plates. After overnight incubation at 37° C., the fluorescence values (CI values) were determined. Then the plates were treated with various substance dilutions (1E-5 M, 3E-6 M, 1E-6 M, 3E-7 M, 1E-7 M, 3E-8 M, 1E-8 M) and incubated at 37° C. for 72 (MV4-11, LOX-IMVI cells), 96 (MOLM-13, B16F10, […] cells), 120 (MOLP-8, KMS-12-PE cells) or 168 (LAPC-4 cells) hours. Subsequently, the fluorescence values were determined (CO values). For the data analysis, the CI values were subtracted from the CO values and the results were compared between cells which had been treated with various dilutions of the substance or only with buffer solution. This was used to calculate the IC50 values (substance concentration required for 50% inhibition of cell proliferation).
(§3) The substances were examined in the cell lines of Table 1 which, in an exemplary manner, represent the stated indications: […]

MV4-11 cells = assay: Cell proliferation assay (alamarBlue), MV4-11; format: cell-based; conditions: Homo sapiens, acute myeloid leukaemia cell line, 72 h incubation
Method: as §1
The MV4-11 cells (ATCC, CRL 9591) were sown at a concentration of 5000 cells/well in 100 μl of growth medium (RPMI1640, 10% FCS) on 96-well microtitre plates.
as §2, with “proliferation). […]” for “proliferation).”

LOX-IMVI cells = assay: Cell proliferation assay (alamarBlue), LOX IMVI; format: cell-based; conditions: Homo sapiens, melanoma (BRAF mutated) cell line, 72 h incubation
Method: as §1
The LOX-IMVI cells (NCI-60) were sown at a concentration of 1000 cells/well in 100 μl of growth medium (RPMI1640, 10% FCS) on 96-well microtitre plates.
as §2, with “proliferation). […]” for “proliferation).”

MOLM-13 cells = assay: Cell proliferation assay (alamarBlue), MOLM-13; format: cell-based; conditions: acute myeloid leukaemia cell line, 96 h incubation
Method: as §1
The MOLM-13 cells (DSMZ, ACC 554) were sown at a concentration of 4000 cells/well in 100 μl of growth medium (RPMI1640, 10% FCS) on 96-well microtitre plates.
as §2, §3

LAPC-4 cells = assay: Cell proliferation assay (alamarBlue), LAPC-4; format: cell-based; conditions: Homo sapiens, LAPC4; prostate cancer cell line, 1 nM methyltrienolone, 168 h incubation
Method: as §1
The LAPC-4 cells (ATCC, PTA-1441TM) were sown at a concentration of 4000 cells/well in 100 μl of growth medium (RPMI1640, 2 mM L-glutamine, 10% cFCS) on 96-well microtitre plates. One day later, the LAPC-4 cells were treated with 1 nM methyltrienolone and various substance dilutions.
as §2, with “For the data analysis, the CI values were subtracted from the CO values and the results were compared between cells which had been treated with various dilutions of the substance or only with buffer solution. This was used to calculate the IC50 values (substance concentration required for 50% inhibition of cell proliferation).” left out

BRD4 (BD1) = biological target: T1, BRD4 (BD1) (Homo sapiens, UniProt O60885); assay: Binding assay BRD4/acetylated peptide H4 (TR-FRET protein-protein interaction assay); conditions: BRD4 (BD1) / acetylated histone H4 peptide
T1 construct: longer constructs also being possible, preferably amino acids 44-168; made in house; host or cells: E. coli
Summary of the method: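 His6-tagged BRD4 BD1 (aa 67-152, E. coli-expressed, typically 10 nM) was used with a biotinylated tetra-acetylated H4 peptide, and compounds at 0.1 nM–20 μM in duplicate. After 10 min preincubation, mixtures were incubated 1 h at 22 °C, then ≥3 h at 4 °C. Read-out was the TR-FRET 665/622 nm ratio (Eu-streptavidin to anti-His-XL665); IC50 from a 4-parameter fit.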

KMS-12-PE cells = assay: Cell proliferation assay (alamarBlue), KMS-12-PE; format: cell-based; conditions: Homo sapiens, multiple myeloma cell line, 120 h incubation
Method: as §1
The KMS-12-PE cells (DSMZ, ACC 606) were sown at a concentration of 4000 cells/well in 100 μl of growth medium (RPMI1640, 20% FCS) on 96-well microtitre plates.
as §2, with “proliferation). […]” for “proliferation).”

MDA-MB-231 cells = assay: Cell proliferation assay (alamarBlue), MDA-MB-231; format: cell-based; conditions: Homo sapiens, mammary carcinoma cell line, 96 h incubation
Method: as §1, §2, §3

MOLP-8 cells = assay: Cell proliferation assay (alamarBlue), MOLP-8; format: cell-based; conditions: multiple myeloma cell line, 120 h incubation
Method: as §1
The MOLP-8 cells (DSMZ, ACC 569) were sown at a concentration of 4000 cells/well in 100 μl of growth medium (RPMI1640, 20% FCS) on 96-well microtitre plates.
as §2, §3

IC50 (B16F10 cells; Mus musculus, B16-F10) | IC50 (MV4-11 cells) | IC50 (MOLM-13 cells; Homo sapiens, MOLM-13) | IC50 (BRD4 (BD1)) | IC50 (MDA-MB-231 cells) | IC50 (B16F10 cells) | IC50 (MOLM-13 cells) | SMILES | IC50 (LOX-IMVI cells) | IC50 (LAPC-4 cells) | IC50 (KMS-12-PE cells) | IC50 (MOLP-8 cells; Homo sapiens, MOLP-8) | IC50 (MOLP-8 cells)
40 nM | 40 nM | 70 nM | 20 nM | 80 nM |  |  | CNC(=O)N1N=C(c2ccc(N3CC4(CCS4(=O)=O)C3)cc2)c2cc(OC)c(OC)cc2C[C@@H]1C [Example 3.1, (4S)-1-[4-(1,1-Dioxido-1-thia-6-azaspiro[3.3]hept-6-yl)phenyl]-7,8-dimethoxy-N,4-dimethyl-4,5-dihydro-3H-2,3-benzodiazepine-3-carboxamide] | 280 nM | 20 nM | 50 nM | 40 nM | 
20 nM | 30 nM | 40 nM | 10 nM | 40 nM |  |  | CNC(=O)N1N=C(c2ccc(N3C[C@H]4CC[C@@H](C3)O4)cc2)c2cc(OC)c(OC)cc2C[C@@H]1C [Example 4.2, (4S)-7,8-dimethoxy-N,4-dimethyl-1-[4-(8-oxa-3-azabicyclo[3.2.1]oct-3-yl)phenyl]-4,5-dihydro-3H-2,3-benzodiazepine-3-carboxamide] | 170 nM | 10 nM | 30 nM | 20 nM | 
 |  |  | 70 nM |  | 210 nM | 200 nM | CNC(=O)N1N=C(c2ccc(N3C[C@@H]4C[C@H]3CN4C)cc2)c2cc(OC)c(OC)cc2C[C@H]1C (relative stereo) [Example 40.1, [1S-[1R*,2(S*),4R*]]-7,8-Dimethoxy-N,4-dimethyl-1-[4-(5-methyl-2,5-diazabicyclo[2.2.1]hept-2-yl)phenyl]-4,5-dihydro-3H-2,3-benzodiazepine-3-carboxamide] |  |  |  |  | 100 nM
260 nM |  | 330 nM | 170 nM |  |  |  | CNC(=O)N1N=C(c2cccc(N3CC4(CCS4(=O)=O)C3)c2)c2cc(OC)c(OC)cc2CC1C (racemic) [Example 14, 1-[3-(1,1-dioxido-1-thia-6-azaspiro[3.3]hept-6-yl)phenyl]-7,8-dimethoxy-N,4-dimethyl-4,5-dihydro-3H-2,3-benzodiazepine-3-carboxamide] |  |  |  | 240 nM | 
150 nM |  | 170 nM | 140 nM |  |  |  | CNC(=O)N1N=C(c2ccc(N3C[C@@H]4C[C@H]3CN4)cc2)c2cc(OC)c(OC)cc2CC1C (relative stereo) [Example 19, [1S-(1R*,4R*)]-1-[4-(2,5-Diazabicyclo[2.2.1]hept-2-yl)phenyl]-7,8-dimethoxy-4,5-dihydro-N,4-dimethyl-3H-2,3-benzodiazepine-3-carboxamide] |  |  |  | 100 nM | 
150 nM |  | 150 nM | 80 nM |  |  |  | CNC(=O)N1N=C(c2ccc(N3CC4(CN(Cc5ccccc5)C4)C3)cc2)c2cc(OC)c(OC)cc2CC1C (racemic) [Example 10, (±)-1-[4-(6-benzyl-2,6-diazaspiro[3.3]hept-2-yl)phenyl]-7,8-dimethoxy-N,4-dimethyl-4,5-dihydro-3H-2,3-benzodiazepine-3-carboxamide] |  |  |  | 80 nM | 
100 nM |  | 160 nM | 60 nM |  |  |  | CNC(=O)N1N=C(c2ccc(N3CCCC4(COC4)C3)cc2)c2cc(OC)c(OC)cc2CC1C (racemic) [Example 11, (±)-7,8-dimethoxy-N,4-dimethyl-1-[4-(2-oxa-6-azaspiro[3.5]non-6-yl)phenyl]-4,5-dihydro-3H-2,3-benzodiazepine-3-carboxamide] |  |  |  | 100 nM | 
70 nM |  | 150 nM | 40 nM |  |  |  | CNC(=O)N1N=C(c2ccc(N3CCC4OCCC4C3)cc2)c2cc(OC)c(OC)cc2CC1C (racemic) [Example 36, (±)-1-[4-(hexahydrofuro[3,2-c]pyridin-5(4H)-yl)phenyl]-7,8-dimethoxy-N,4-dimethyl-4,5-dihydro-3H-2,3-benzodiazepine-3-carboxamide] |  |  |  | 90 nM | 
180 nM |  | 260 nM | 140 nM |  |  |  | CNC(=O)N1N=C(c2ccc(N3CC4(CN(C(=O)OC(C)(C)C)C4)C3)cc2)c2cc(OC)c(OC)cc2CC1C (racemic) [Example 8, tert-butyl 6-{4-[(±)-7,8-dimethoxy-4-methyl-3-(methylcarbamoyl)-4,5-dihydro-3H-2,3-benzodiazepine-1-yl]phenyl}-2,6-diazaspiro[3.3]heptane-2-carboxylate] |  |  |  | 160 nM | 
400 nM |  | 170 nM | 100 nM |  |  |  | CNC(=O)N1N=C(c2ccc(N3CC4(CN(C)C4)C3)cc2)c2cc(OC)c(OC)cc2CC1C (racemic) [Example 38, (±)-7,8-Dimethoxy-N,4-dimethyl-1-[4-(6-methyl-2,6-diazaspiro[3.3]hept-2-yl)phenyl]-4,5-dihydro-3H-2,3-benzodiazepine-3-carboxamide] |  |  |  | 140 nM | 
80 nM |  | 100 nM | 10 nM |  |  |  | CNC(=O)N1N=C(c2ccc(N3CC4(CCS4(=O)=O)C3)cc2)c2cc(-n3nc(C)cc3C)ccc2C[C@@H]1C [Example 17.2, (4S)-8-(3,5-Dimethyl-1H-pyrazol-1-yl)-1-[4-(1,1-dioxido-1-thia-6-azaspiro[3.3]hept-6-yl)phenyl]-N,4-dimethyl-4,5-dihydro-3H-2,3-benzodiazepine-3-carboxamide] |  |  |  | 60 nM | 
130 nM |  | 180 nM | 60 nM |  |  |  | CNC(=O)N1N=C(c2ccc(N3CC4(CN(C(=O)OC(C)(C)C)C4)C3)cc2)c2cc(OC)c(OC)cc2C[C@@H]1C [Example 8.1, tert-butyl 6-{4-[(4S)-7,8-dimethoxy-4-methyl-3-(methylcarbamoyl)-4,5-dihydro-3H-2,3-benzodiazepine-1-yl)phenyl}-2,6-diazaspiro[3.3]heptane-2-carboxylate] |  |  |  | 100 nM | 
